Assay results taken from patent US20170202783A1, “Amphiphilic Peptide Nanoparticles for Use as Hydrophobic Drug Carriers and Antibacterial Agents” (Northeastern University, priority 2014, published 2017).
Where a SMILES comes first, the peptide text is derived from it. The star is where a group is joined. Stearoyl = CCCCCCCCCCCCCCCCCC(=O)*

Tests used:
[1] = Solubility of curcumin in water; format: physicochemical; details: thermodynamic from solid
MG-63 osteosarcoma cells [2] = assay: Cellular uptake of curcumin by bright field and confocal microscopy; format: cell-based, human; details: 20 μM curcumin
Procedure: (§1) A confocal laser scanning microscope and a bright field microscope were used for a qualitative study of the cellular uptake of curcumin from curcumin-loaded APNPs. First, 1 mL each of the osteosarcoma cell line and the healthy human osteoblast cell line were seeded on a 24-well plate at a density of 2×10^4 cells/mL. […] The cells were then rinsed with phosphate-buffered saline three times to remove the unabsorbed curcumin. The qualitative uptake of curcumin was then monitored by bright field microscopy. In another study, the nuclei of the cells were tracked by blue fluorescent DAPI staining using confocal microscopy (FIGS. 8A-8F), and the F-actin filaments of cells were stained with red fluorescent Rhodamine 6G. After 10 minutes of fixation by 10% formaldehyde solution and subsequent treatment with a 0.1% Triton X-100 solution for 10 minutes, the cells were stained with DAPI and Atto Rho6G phalloidin and observed using a Zeiss LSM710 laser scanning confocal microscope.

[3] = test system: healthy human osteoblasts; assay: as above; format: cell-based; details: normal human osteoblast cells, 20 μM curcumin
Procedure: as §1

[4] = background statement; cited from earlier work
[5] = Zeta potential measurement (ZS90 Nanosizer); format: physicochemical; details: deionized water
Procedure: The zeta potential of the nanoparticles was determined using 1 mL of each sample, each measured for ten preparations in triplicate.

MG-63 osteosarcoma cells [6] = assay: MTT cytotoxicity assay; details: osteosarcoma cell line, highest concentration investigated, 24 hours, serum-free medium
Procedure: (§2) MG-63 osteosarcoma (CRL-1427) cells (American Type Culture Collection) were cultured in Eagle's Minimum Essential Medium supplemented with 10% fetal bovine serum and 1% penicillin/streptomycin, while healthy human osteoblasts (C-12760, PromoCell) were cultured in complete growth medium composed of osteoblast basal medium and osteoblast growth medium Supplement Mix. Both cell lines were incubated at 37° C. in a humidified incubator with an atmosphere of 95% […] and 5% CO2. Cells were used at population doubling numbers less than 3. Eagle's Minimum Essential Medium was purchased from the American Type Culture Collection (Manassas, Va., USA), and osteoblast basal medium and osteoblast growth medium Supplemental Mix were purchased from PromoCell (Heidelberg, Germany). Methyl-thiazolyl-tetrazolium (MTT) dye solution was purchased from Promega (Madison, Wis., USA). 4′,6-diamidino-2-phenylindole (DAPI), and Atto Rho6G phalloidin were supplied by Sigma-Aldrich (St Louis, Mo., USA).
(§3) 100 μL of the osteosarcoma and healthy osteoblast cell suspensions were seeded on a 96-well plate at 2×10^3 cells/well (cell density 6,154 cells/cm^2). […] Cells treated with medium only were used as a […] control. […]
(§4) The cells were treated for 24 hours. […] Cell viability was expressed as the ratio of cell density in each sample to the cell density in the control sample.

[7] = test system: healthy human osteoblasts; assay: MTT cytotoxicity assay; details: human osteoblast cell line, highest concentration investigated, 24 hours, serum-free medium
Procedure: as §2, §3, §4

Human dermal fibroblasts = details: 24 hours, MTS
Procedure: Human dermal fibroblasts (Lonza, CC-2511) were plated at a density of 10,000 cells/cm^2 in a 96-well plate and maintained in DMEM culture medium supplemented with 10% fetal bovine serum (FBS, Hyclone) and 1% penicillin/streptomycin (P/S, Hyclone). APNPs were added to the culture medium to achieve the indicated final concentration of C18GR7RGDS, and the cells were incubated for 24 hours prior to determination of cell density by MTS assay.

| SMILES | solubility [1] [mg/mL] | curcumin uptake, confocal fluorescence (MG-63 osteosarcoma cells [2]) | curcumin uptake, bright field microscopy (MG-63 osteosarcoma cells [2]; 2 hours) | curcumin uptake, confocal fluorescence [3] | curcumin uptake, bright field microscopy ([3]; 2 hours) | solubility in water [4] | stability in aqueous solution (indicated by zeta potential) [5] | cytotoxicity (MG-63 osteosarcoma cells [6]) | cytotoxicity [7] | concentration resulting in significant loss of cell viability (reduced density of living cells) (Human dermal fibroblasts) [µM] |
| --- | --- | --- | --- | --- | --- | --- | --- | --- | --- | --- |
| COc1cc(/C=C/C(=O)CC(=O)/C=C/c2ccc(O)c(OC)c2)ccc1O [curcumin, diferuloylmethane] | < 0.1 | neither cell line showed detectable fluorescence | did not accumulate in the cytosol | neither cell line showed detectable fluorescence | did not accumulate in the cytosol | insoluble in water | – | – | – | – |
| CCCCCCCCCCCCCCCCCC(=O)NCC(=O)N[C@@H](CCCNC(=N)N)C(=O)N[C@@H](CCCNC(=N)N)C(=O)N[C@@H](CCCNC(=N)N)C(=O)N[C@@H](CCCNC(=N)N)C(=O)N[C@@H](CCCNC(=N)N)C(=O)N[C@@H](CCCNC(=N)N)C(=O)N[C@@H](CCCNC(=N)N)C(=O)N[C@@H](CCCNC(=N)N)C(=O)NCC(=O)N[C@@H](CC(=O)O)C(=O)N[C@@H](CO)C(=O)O [pure C18GR7RGDS APNPs] (Stearoyl-GRRRRRRRRGDS-OH) | – | – | – | – | – | – | stable in aqueous solution | minor cytotoxicity | minor cytotoxicity | ≥ 40 |
